In publication PMC11822212, “High-throughput screening identifies Aurora kinase B as a critical therapeutic target for Merkel cell carcinoma” (Nature Communications, 2025):
Several values for one entry are separate records, joined by “and”; a condition that tells them apart may be missing. Equal values may be shown once. Read-outs that look alike come from different tables or passages of the source.

Assays:
Assay in all cases: qHTS cell viability (CellTiter-Glo, 72 h; primary and follow-up small molecule screen)
Type in all cases: cell-based, human
[1] = test system: MCC13 cells (VN-MCC)
[2] = test system: MCC26 cells (VN-MCC)
[3] = test system: UISO cells (VN-MCC)
[4] = test system: WAGA cells (VP-MCC)
[5] = test system: MKL-1 cells (VP-MCC)
[6] = test system: MKL-2 cells (VP-MCC)

| SMILES | Area under the dose-response curve (AUC) MCC13 Replicate 1 [1] | Area under the dose-response curve (AUC) MCC13 Replicate 2 [1] | Area under the dose-response curve (AUC) MCC13 Replicate 3 [1] | Area under the dose-response curve (AUC) MCC26 Replicate 1 [2] | Area under the dose-response curve (AUC) MCC26 Replicate 2 [2] | Area under the dose-response curve (AUC) MCC26 Replicate 3 [2] | Area under the dose-response curve (AUC) UISO Replicate 1 [3] | Area under the dose-response curve (AUC) UISO Replicate 2 [3] | Area under the dose-response curve (AUC) UISO Replicate 3 [3] | Area under the dose-response curve (AUC) WAGA Replicate 1 [4] | Area under the dose-response curve (AUC) WAGA Replicate 2 [4] | Area under the dose-response curve (AUC) WAGA Replicate 3 [4] | Area under the dose-response curve (AUC) MKL-1 Replicate 1 [5] | Area under the dose-response curve (AUC) MKL-1 Replicate 2 [5] | Area under the dose-response curve (AUC) MKL-1 Replicate 3 [5] | Area under the dose-response curve (AUC) MKL-2 Replicate 1 [6] | Area under the dose-response curve (AUC) MKL-2 Replicate 2 [6] | Area under the dose-response curve (AUC) MKL-2 Replicate 3 [6] | Area under the dose-response curve (AUC) [1] | Area under the dose-response curve (AUC) [2] | further results |
| --- | --- | --- | --- | --- | --- | --- | --- | --- | --- | --- | --- | --- | --- | --- | --- | --- | --- | --- | --- | --- | --- |
| CO[C@@H]1C[C@@H](C[C@H]2CC[C@H](C)[C@H]([C@@H](C)C(=O)[O-])O2)O[C@]2(O[C@](C)([C@H]3CC[C@@](C)([C@@H]4O[C@@H]([C@H]5O[C@@](O)(CO)[C@H](C)C[C@@H]5C)C[C@@H]4C)O3)C[C@H]2C)[C@@H]1C.[Na+] [Nigericin sodium salt] | 420.5 | 422.2 | 367.3 | 423.1 | 378.2 | 418.9 | 277.0 | 262.8 | 250.0 | 344.8 | 317.4 | 302.7 | 303.1 | 277.9 | 285.1 | 228.1 | 251.1 | 280.4 | – | – | – |
| COc1cc(O)c2c(c1)oc(=O)c1c3cc(O)c(O)cc3oc21 [WEDELOLACTONE] | 452.7 | 445.8 | 440.3 | 436.4 | 432.2 | 441.9 | 275.6 | 271.0 | 228.5 | 442.4 | 419.0 | 421.6 | 490.5 | 454.4 | 448.6 | 426.5 | 409.5 | 433.4 | – | – | – |
| C[C@@H]1O[C@@H](O[C@H]2C[C@@H](O)[C@]3(CO)[C@H]4[C@H](O)C[C@]5(C)[C@@H](C6=CC(=O)OC6)CC[C@]5(O)[C@@H]4CC[C@]3(O)C2)[C@H](O)[C@H](O)[C@H]1O [G-Strophanthin] | – | – | – | – | – | – | – | – | – | – | – | – | – | – | – | – | – | – | – | – | Area under the dose-response curve (AUC) MCC13 Replicate 1 ([1]; follow-up screen, MCC13, replicate 1): 250.1; Area under the dose-response curve (AUC) MCC13 Replicate 2 ([1]; follow-up screen, MCC13, replicate 2): 222.2; Area under the dose-response curve (AUC) MCC13 Replicate 3 ([1]; follow-up screen, MCC13, replicate 3): 219.6; Area under the dose-response curve (AUC) MCC26 Replicate 1 ([2]; follow-up screen, MCC26, replicate 1): 280.5; Area under the dose-response curve (AUC) MCC26 Replicate 2 ([2]; follow-up screen, MCC26, replicate 2): 322.9; Area under the dose-response curve (AUC) MCC26 Replicate 3 ([2]; follow-up screen, MCC26, replicate 3): 231.8; Area under the dose-response curve (AUC) UISO Replicate 1 ([3]; follow-up screen, UISO, replicate 1): 241.1; Area under the dose-response curve (AUC) UISO Replicate 2 ([3]; follow-up screen, UISO, replicate 2): 235.2; Area under the dose-response curve (AUC) UISO Replicate 3 ([3]; follow-up screen, UISO, replicate 3): 205.5; Area under the dose-response curve (AUC) WAGA Replicate 1 ([4]; follow-up screen, WAGA, replicate 1): 307.5; Area under the dose-response curve (AUC) WAGA Replicate 2 ([4]; follow-up screen, WAGA, replicate 2): 286.8; Area under the dose-response curve (AUC) WAGA Replicate 3 ([4]; follow-up screen, WAGA, replicate 3): 292.2; Area under the dose-response curve (AUC) MKL-1 Replicate 1 ([5]; follow-up screen, MKL-1, replicate 1): 297.3; Area under the dose-response curve (AUC) MKL-1 Replicate 2 ([5]; follow-up screen, MKL-1, replicate 2): 274.0; Area under the dose-response curve (AUC) MKL-1 Replicate 3 ([5]; follow-up screen, MKL-1, replicate 3): 262.6; Area under the dose-response curve (AUC) MKL-2 Replicate 1 ([6]; follow-up screen, MKL-2, replicate 1): 279.7; Area under the dose-response curve (AUC) MKL-2 Replicate 2 ([6]; follow-up screen, MKL-2, replicate 2): 288.8; Area under the dose-response curve (AUC) MKL-2 Replicate 3 ([6]; follow-up screen, MKL-2, replicate 3): 290.5 |
| O.O=c1c2ccc(O)c(O)c2oc2c(O)c(O)ccc12 [3,4,5,6-Tetrahydroxyxanthone hydrate] | – | – | – | – | – | – | – | – | – | – | – | – | – | – | – | – | – | – | 500.0 and 470.6 and 462.5 | 448.2 and 449.4 and 459.1 | Area under the dose-response curve (AUC) [3]: 455.2 and 451.1 and 430.7; Area under the dose-response curve (AUC) [4]: 510.8 and 453.0 and 432.4; Area under the dose-response curve (AUC) [5]: 474.6 and 473.6 and 453.4; Area under the dose-response curve (AUC) [6]: 454.0 and 468.2 and 444.8 |
| Oc1ccc(C2=Cc3ccc(O)cc3OC2)cc1 [Idronoxil] | – | – | – | – | – | – | – | – | – | – | – | – | – | – | – | – | – | – | 415.6 and 455.9 and 456.9 | 408.0 and 413.9 and 448.0 | Area under the dose-response curve (AUC) [3]: 422.5 and 447.1 and 401.0; Area under the dose-response curve (AUC) [4]: 395.2 and 366.0 and 386.6; Area under the dose-response curve (AUC) [5]: 285.6 and 303.3 and 334.8; Area under the dose-response curve (AUC) [6]: 351.5 and 302.3 and 331.4 |
